Test system: Rhizoctonia solani
Assay: Limit concentration of soil-fungicidal effectiveness, Rhizoctonia solani, infested soil seeded with peas (Example 1)
Assay type: in vivo
Details: soil, 480 h, 20 to 23 days, 22°-25° C, read-out: Limit concentration of the fungicidal effectiveness
Description: (§1) Limit concentrations of the soil-fungicidal effectiveness at homogeneous mixture of the products with the infested soil. Basic condition in the evaluation are a sound root formation without fungus necroses and germination of the seed of at least 90% compared with the result obtained in steamed soil. Per concentration there were seeded 25 grains of peas of the variety "Miracle of Kelvedon" (marrow pea) without a waiting period. The cultivation time in the tests was 20 to 23 days at a temperature of 22°-25° C. Four commercial products were included in the test series.
Rhizoctania solani: -- Steamed compost soil was inoculated with mycelium of Rhizoctonia solani.

SMILES	minimal effective concentration
C[S+]([O-])c1nnc(C(Cl)(Cl)Cl)s1 (stereo not shown) [Compound 8, 2-trichloromethyl-5-methylsulfinyl-1,3,4-thiadiazole]	10 µg/mL
CCS(=O)(=O)c1nnc(C(Cl)Cl)s1 [Compound 18, 2-dichloromethyl-5-ethylsulfonyl-1,3,4-thiadiazole]	100 µg/mL
CCCS(=O)(=O)c1nnc(C(Cl)Cl)s1 [Compound 19, 2-dichloromethyl-5-propylsulfonyl-1,3,4-thiadiazole]	50 µg/mL
CS(=O)(=O)c1nnc(C(Cl)(Cl)Cl)s1 [Compound 21, 2-trichloromethyl-5-methylsulfonyl-1,3,4-thiadiazole]	10 µg/mL
CCCCC(Br)c1nnc(S(C)(=O)=O)s1 (stereo not shown) [Compound 52, 2-(1-bromopentyl)-5-methylsulfonyl-1,3,4-thiadiazole]	100 µg/mL

Test system: Stemphylium ilicis
Assay: Agar test (Example 7), Stemphylium
Assay type: cell-based
Details: 10 ppm; 5 days at 22° C; control 100
Description: (§2) The fungicidal action of the agents according to the invention was tested in artificial nutrient media against plant-pathogenic fungi in Petri dishes (agar test). The procedure was to sterilize the medium consisting of 2% malt extract and 1.5% agar-agar powder. Before the solidification of the medium, the active substances were added to it, mixing thoroughly, so that the medium received 10 parts of active substance per million (ppm). After the solidification of the medium, the latter was inoculated with a platinum dropper which contained 100 spores each of the fungi to be tested, and after five days at 22° C, an evaluation was made by measuring the diameter of the colonies in mm.

SMILES	diameter of the colonies
C[S+]([O-])c1nnc(C(Cl)(Cl)Cl)s1 (stereo not shown) [Compound 8, 2-trichloromethyl-5-methylsulfinyl-1,3,4-thiadiazole]	0 mm
CCS(=O)(=O)c1nnc(C(Cl)Cl)s1 [Compound 18, 2-dichloromethyl-5-ethylsulfonyl-1,3,4-thiadiazole]	0 mm
CCCS(=O)(=O)c1nnc(C(Cl)Cl)s1 [Compound 19, 2-dichloromethyl-5-propylsulfonyl-1,3,4-thiadiazole]	0 mm
CS(=O)(=O)c1nnc(C(Cl)(Cl)Cl)s1 [Compound 21, 2-trichloromethyl-5-methylsulfonyl-1,3,4-thiadiazole]	0 mm

Test system: Colletotrichum gloeosporioides
Assay: Agar test (Example 7), Colletotrichum
Assay type: cell-based
Details: 10 ppm; 5 days at 22° C; control 100
Description: as §2

SMILES	diameter of the colonies
C[S+]([O-])c1nnc(C(Cl)(Cl)Cl)s1 (stereo not shown) [Compound 8, 2-trichloromethyl-5-methylsulfinyl-1,3,4-thiadiazole]	0 mm
CCS(=O)(=O)c1nnc(C(Cl)Cl)s1 [Compound 18, 2-dichloromethyl-5-ethylsulfonyl-1,3,4-thiadiazole]	41 mm
CCCS(=O)(=O)c1nnc(C(Cl)Cl)s1 [Compound 19, 2-dichloromethyl-5-propylsulfonyl-1,3,4-thiadiazole]	0 mm
CS(=O)(=O)c1nnc(C(Cl)(Cl)Cl)s1 [Compound 21, 2-trichloromethyl-5-methylsulfonyl-1,3,4-thiadiazole]	0 mm

Test system: Pythium ultimum
Assay: Limit concentration of soil-fungicidal effectiveness, Pythium ultimum, infested soil seeded with peas (Example 1)
Assay type: in vivo
Details: 20 to 23 days, 22°-25° C
Description: as §1
Pythium ultimum: -- Steamed compost soil was inoculated with mycelium of Pythium ultimum

SMILES	Limit concentration of the fungicidal effectiveness
CCCCC(Br)c1nnc(S(C)(=O)=O)s1 (stereo not shown) [Compound 52, 2-(1-bromopentyl)-5-methylsulfonyl-1,3,4-thiadiazole]	no effect

Test system: Asperqilus niger
Assay: Agar test (Example 7), Aspergillus
Assay type: cell-based
Details: 10 ppm; 5 days at 22° C; control 100
Description: as §2

SMILES	diameter of the colonies
C[S+]([O-])c1nnc(C(Cl)(Cl)Cl)s1 (stereo not shown) [Compound 8, 2-trichloromethyl-5-methylsulfinyl-1,3,4-thiadiazole]	0 mm
CCS(=O)(=O)c1nnc(C(Cl)Cl)s1 [Compound 18, 2-dichloromethyl-5-ethylsulfonyl-1,3,4-thiadiazole]	0 mm
CCCS(=O)(=O)c1nnc(C(Cl)Cl)s1 [Compound 19, 2-dichloromethyl-5-propylsulfonyl-1,3,4-thiadiazole]	0 mm
CS(=O)(=O)c1nnc(C(Cl)(Cl)Cl)s1 [Compound 21, 2-trichloromethyl-5-methylsulfonyl-1,3,4-thiadiazole]	0 mm

Test system: Botrytis cinerea
Assay: Agar test (Example 7), Botrytis
Assay type: cell-based
Details: 10 ppm; 5 days at 22° C; control 100
Description: as §2

SMILES	diameter of the colonies
C[S+]([O-])c1nnc(C(Cl)(Cl)Cl)s1 (stereo not shown) [Compound 8, 2-trichloromethyl-5-methylsulfinyl-1,3,4-thiadiazole]	0 mm
CCS(=O)(=O)c1nnc(C(Cl)Cl)s1 [Compound 18, 2-dichloromethyl-5-ethylsulfonyl-1,3,4-thiadiazole]	13 mm
CCCS(=O)(=O)c1nnc(C(Cl)Cl)s1 [Compound 19, 2-dichloromethyl-5-propylsulfonyl-1,3,4-thiadiazole]	0 mm
CS(=O)(=O)c1nnc(C(Cl)(Cl)Cl)s1 [Compound 21, 2-trichloromethyl-5-methylsulfonyl-1,3,4-thiadiazole]	0 mm

Test system: Rhizoctonia solani
Assay: Rhizoctonia solani infested compost soil, marrow peas (Example 3)
Assay type: in vivo
Details: 10 mg active ingr. per liter of soil; 3 weeks
From the text: Steamed compost soil was inoculated with mycelium of Rhizoctonia solani. After homogeneous mixture of the products with the infested soil, the products were present in the form of 20% powder preparations, the seeding of 25 grains of marrow peas of the variety "Miracle of Kelvedon" per concentration was effected without waiting period in clay dishes holding 1 liter of soil. The table lists the number of germinated sound peas, the weight of the fresh plant, and a root evaluation after a cultivation period of three weeks at 22°-25° C.

SMILES	Weight of fresh plant
C[S+]([O-])c1nnc(C(Cl)(Cl)Cl)s1 (stereo not shown) [Compound 8, 2-trichloromethyl-5-methylsulfinyl-1,3,4-thiadiazole]	17 g
CS(=O)(=O)c1nnc(C(Cl)(Cl)Cl)s1 [Compound 21, 2-trichloromethyl-5-methylsulfonyl-1,3,4-thiadiazole]	11 g

Same assay, conditions: 10 mg active ingr. per liter of soil; of 25 grains

SMILES	Number of sound peas after 3 wks.
C[S+]([O-])c1nnc(C(Cl)(Cl)Cl)s1 (stereo not shown) [Compound 8, 2-trichloromethyl-5-methylsulfinyl-1,3,4-thiadiazole]	21
CS(=O)(=O)c1nnc(C(Cl)(Cl)Cl)s1 [Compound 21, 2-trichloromethyl-5-methylsulfonyl-1,3,4-thiadiazole]	17

Same assay, conditions: 20 mg active ingr. per liter of soil; 3 weeks

SMILES	Weight of fresh plant
C[S+]([O-])c1nnc(C(Cl)(Cl)Cl)s1 (stereo not shown) [Compound 8, 2-trichloromethyl-5-methylsulfinyl-1,3,4-thiadiazole]	17 g
CS(=O)(=O)c1nnc(C(Cl)(Cl)Cl)s1 [Compound 21, 2-trichloromethyl-5-methylsulfonyl-1,3,4-thiadiazole]	17 g

Same assay, conditions: 20 mg active ingr. per liter of soil; of 25 grains

SMILES	Number of sound peas after 3 wks.
C[S+]([O-])c1nnc(C(Cl)(Cl)Cl)s1 (stereo not shown) [Compound 8, 2-trichloromethyl-5-methylsulfinyl-1,3,4-thiadiazole]	24
CS(=O)(=O)c1nnc(C(Cl)(Cl)Cl)s1 [Compound 21, 2-trichloromethyl-5-methylsulfonyl-1,3,4-thiadiazole]	24

Same assay, conditions: 30 mg active ingr. per liter of soil; 3 weeks

SMILES	Weight of fresh plant
C[S+]([O-])c1nnc(C(Cl)(Cl)Cl)s1 (stereo not shown) [Compound 8, 2-trichloromethyl-5-methylsulfinyl-1,3,4-thiadiazole]	17 g
CS(=O)(=O)c1nnc(C(Cl)(Cl)Cl)s1 [Compound 21, 2-trichloromethyl-5-methylsulfonyl-1,3,4-thiadiazole]	17 g

Same assay, conditions: 30 mg active ingr. per liter of soil; of 25 grains

SMILES	Number of sound peas after 3 wks.
C[S+]([O-])c1nnc(C(Cl)(Cl)Cl)s1 (stereo not shown) [Compound 8, 2-trichloromethyl-5-methylsulfinyl-1,3,4-thiadiazole]	24
CS(=O)(=O)c1nnc(C(Cl)(Cl)Cl)s1 [Compound 21, 2-trichloromethyl-5-methylsulfonyl-1,3,4-thiadiazole]	24

Test system: Helminthosporium sativum
Assay: Agar test (Example 7), Helminthosporium
Assay type: cell-based
Details: 10 ppm; 5 days at 22° C; control 100
Description: as §2

SMILES	diameter of the colonies
C[S+]([O-])c1nnc(C(Cl)(Cl)Cl)s1 (stereo not shown) [Compound 8, 2-trichloromethyl-5-methylsulfinyl-1,3,4-thiadiazole]	0 mm
CCS(=O)(=O)c1nnc(C(Cl)Cl)s1 [Compound 18, 2-dichloromethyl-5-ethylsulfonyl-1,3,4-thiadiazole]	0 mm
CCCS(=O)(=O)c1nnc(C(Cl)Cl)s1 [Compound 19, 2-dichloromethyl-5-propylsulfonyl-1,3,4-thiadiazole]	0 mm
CS(=O)(=O)c1nnc(C(Cl)(Cl)Cl)s1 [Compound 21, 2-trichloromethyl-5-methylsulfonyl-1,3,4-thiadiazole]	0 mm

Test system: Meloidogyne incognita
Assay: Nematocidal action, infested compost soil, cucumber seeds (Example 8)
Assay type: in vivo
Details: 40 mg per liter of soil; 30 days
Description: The products as 20% powder preparations were homogeneously admixed with a compost soil heavily infested by root gal nematodes. Without a waiting period, 20 cucumber seeds per concentration were seeded. After a cultivation time of 30 days at a temperature of 23°-25° C, the nematocidal action was evaluated by counting the root galls formed in the waterbath. The following table states the reduction of attack in percent. In the control, an average of 90 root galls per seedling had formed.

SMILES	Nematocidal action in % (reduction of attack)
CCS(=O)(=O)c1nnc(C(Cl)Cl)s1 [Compound 18, 2-dichloromethyl-5-ethylsulfonyl-1,3,4-thiadiazole]	61%
CCCS(=O)(=O)c1nnc(C(Cl)Cl)s1 [Compound 19, 2-dichloromethyl-5-propylsulfonyl-1,3,4-thiadiazole]	72%

Same assay, conditions: 60 mg per liter of soil; 30 days

SMILES	Nematocidal action in % (reduction of attack)
CCS(=O)(=O)c1nnc(C(Cl)Cl)s1 [Compound 18, 2-dichloromethyl-5-ethylsulfonyl-1,3,4-thiadiazole]	90%
CCCS(=O)(=O)c1nnc(C(Cl)Cl)s1 [Compound 19, 2-dichloromethyl-5-propylsulfonyl-1,3,4-thiadiazole]	82%

Test system: Pythium ultimum
Assay: Pythium ultimum infested compost soil, marrow peas (Example 2)
Assay type: in vivo
Details: 10 mg active ingr. per liter of soil; 3 weeks
From the text: Steamed compost soil was inoculated with mycelium of Pythium ultimum.

SMILES	Weight of fresh plant
C[S+]([O-])c1nnc(C(Cl)(Cl)Cl)s1 (stereo not shown) [Compound 8, 2-trichloromethyl-5-methylsulfinyl-1,3,4-thiadiazole]	12 g

Same assay, conditions: 10 mg active ingr. per liter of soil; of 25 grains

SMILES	Number of sound peas after 3 wks.
C[S+]([O-])c1nnc(C(Cl)(Cl)Cl)s1 (stereo not shown) [Compound 8, 2-trichloromethyl-5-methylsulfinyl-1,3,4-thiadiazole]	19

Same assay, conditions: 20 mg active ingr. per liter of soil; 3 weeks

SMILES	Weight of fresh plant
C[S+]([O-])c1nnc(C(Cl)(Cl)Cl)s1 (stereo not shown) [Compound 8, 2-trichloromethyl-5-methylsulfinyl-1,3,4-thiadiazole]	22 g

Same assay, conditions: 20 mg active ingr. per liter of soil; of 25 grains

SMILES	Number of sound peas after 3 wks.
C[S+]([O-])c1nnc(C(Cl)(Cl)Cl)s1 (stereo not shown) [Compound 8, 2-trichloromethyl-5-methylsulfinyl-1,3,4-thiadiazole]	24

Same assay, conditions: 30 mg active ingr. per liter of soil; 3 weeks

SMILES	Weight of fresh plant
C[S+]([O-])c1nnc(C(Cl)(Cl)Cl)s1 (stereo not shown) [Compound 8, 2-trichloromethyl-5-methylsulfinyl-1,3,4-thiadiazole]	22 g

Same assay, conditions: 30 mg active ingr. per liter of soil; of 25 grains

SMILES	Number of sound peas after 3 wks.
C[S+]([O-])c1nnc(C(Cl)(Cl)Cl)s1 (stereo not shown) [Compound 8, 2-trichloromethyl-5-methylsulfinyl-1,3,4-thiadiazole]	25

Test system: Fusarium oxysporum f. callistephi
Assay: Fusarium infested compost soil, Callistephus chinesis seedlings (Example 5)
Assay type: in vivo
Details: 50 mg active ingredient per liter of soil; of 4 seedlings
From the text: Steamed compost soil was inoculated with a spore suspension of Fusarium oxysporum f. callistephi. After homogeneous mixture of the products with the infested soil, the products were present as 20% powder preparations, and after a waiting period of 8 days, there were set out per concentration 4 seedlings of Callistephus chinesis, master aster "Sun Ray" as host plants.

SMILES	Number of attacked plants after 3 weeks
C[S+]([O-])c1nnc(C(Cl)(Cl)Cl)s1 (stereo not shown) [Compound 8, 2-trichloromethyl-5-methylsulfinyl-1,3,4-thiadiazole]	0
CCCS(=O)(=O)c1nnc(C(Cl)Cl)s1 [Compound 19, 2-dichloromethyl-5-propylsulfonyl-1,3,4-thiadiazole]	0
CS(=O)(=O)c1nnc(C(Cl)(Cl)Cl)s1 [Compound 21, 2-trichloromethyl-5-methylsulfonyl-1,3,4-thiadiazole]	0

Same assay, conditions: 100 mg active ingredient per liter of soil; of 4 seedlings

SMILES	Number of attacked plants after 3 weeks
C[S+]([O-])c1nnc(C(Cl)(Cl)Cl)s1 (stereo not shown) [Compound 8, 2-trichloromethyl-5-methylsulfinyl-1,3,4-thiadiazole]	0
CCCS(=O)(=O)c1nnc(C(Cl)Cl)s1 [Compound 19, 2-dichloromethyl-5-propylsulfonyl-1,3,4-thiadiazole]	0
CS(=O)(=O)c1nnc(C(Cl)(Cl)Cl)s1 [Compound 21, 2-trichloromethyl-5-methylsulfonyl-1,3,4-thiadiazole]	0

Test system: Damping-off Fungi
Assay: Cotton seed disinfection, normal compost soil (Example 6)
Assay type: in vivo
Details: 100 mg active ingr. per kg of seed; 10% formulation; 15 days
Description: Cotton seeds disinfected with 10% formulations were seeded in normal compost soil (Damping-off Fungi), 25 grains per concentration. After a cultivation time of 15 days at 22°-25° C, the number of germinated sound cotton seedlings and their weight as fresh plants were determined.

SMILES	Sound plants in %	Weight of fresh plant
C[S+]([O-])c1nnc(C(Cl)(Cl)Cl)s1 (stereo not shown) [Compound 8, 2-trichloromethyl-5-methylsulfinyl-1,3,4-thiadiazole]	96%	29 g
CS(=O)(=O)c1nnc(C(Cl)(Cl)Cl)s1 [Compound 21, 2-trichloromethyl-5-methylsulfonyl-1,3,4-thiadiazole]	100%	33 g

Source: US4061645A, “2-Trichloromethyl-5-methylsulfinyl-1,3,4-thiadiazole” (Schering Aktiengesellschaft, priority 1972, dated 1977)
